Source: the supplement of paper PMC10307832

Key:
Experiment in all cases: relative viability (nuclei count vs DMSO), 5 days (fraction); higher = more cells survive
MK-8033 + Palbociclib = compound: Cn1cc(-c2cnc3ccc4ccc(CS(=O)(=O)NCc5ccccn5)cc4c(=O)c3c2)cn1 [MK-8033] + CC(=O)c1c(C)c2cnc(Nc3ccc(N4CCNCC4)cn3)nc2n(C2CCCC2)c1=O [Palbociclib] (partner 0.5 µM)
Method in brief: (§1)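 Lung cancer cell lines in 1536-well plates were dosed by pin tool the day after seeding, either with one drug alone or with a fixed anchor-drug dose plus five library-drug doses (not always all listed) in √10 steps. After 5 days, cells were fixed and their nuclei stained in one step (final 0.05% Triton X-100, 1% formaldehyde, 1 ug/ml Hoechst), then counted on 4× images. Relative viability is the nuclei count in treated wells divided by that in vehicle wells. Values are medians of duplicate plates.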

RU-SKI 43 + Pictilisib = compound: CC[C@@H](C)CNCC(=O)N1CCC2=C([C@@H]1COC3=CC=CC(=C3)C)C=CS2 [RU-SKI 43] + CS(=O)(=O)N1CCN(Cc2cc3nc(-c4cccc5[nH]ncc45)nc(N4CCOCC4)c3s2)CC1 [Pictilisib] (partner 1 µM)
Method in brief: as §1

MK-8033 + Trametinib = compound: Cn1cc(-c2cnc3ccc4ccc(CS(=O)(=O)NCc5ccccn5)cc4c(=O)c3c2)cn1 [MK-8033] + CC(=O)Nc1cccc(-n2c(=O)n(C3CC3)c(=O)c3c(Nc4ccc(I)cc4F)n(C)c(=O)c(C)c32)c1 [Trametinib] (partner 0.02 µM)
Method in brief: as §1

MK-8033 + AZD7762 = compound: Cn1cc(-c2cnc3ccc4ccc(CS(=O)(=O)NCc5ccccn5)cc4c(=O)c3c2)cn1 [MK-8033] + NC(=O)Nc1cc(-c2cccc(F)c2)sc1C(=O)N[C@H]1CCCNC1 [AZD7762] (partner 0.2 µM)
Method in brief: as §1

Cell Line	relative viability (MK-8033 + Palbociclib; first compound 0.02 µM)	relative viability (MK-8033 + Palbociclib; first compound 0.06325 µM)	relative viability (MK-8033 + Palbociclib; first compound 0.2 µM)	relative viability (MK-8033 + Palbociclib; first compound 0.6325 µM)	relative viability (MK-8033 + Palbociclib; first compound 2 µM)	relative viability (RU-SKI 43 + Pictilisib; first compound 0.1 µM)	relative viability (RU-SKI 43 + Pictilisib; first compound 0.3162 µM)	relative viability (RU-SKI 43 + Pictilisib; first compound 1 µM)	relative viability (RU-SKI 43 + Pictilisib; first compound 3.162 µM)	relative viability (RU-SKI 43 + Pictilisib; first compound 10 µM)	relative viability (MK-8033 + Trametinib; first compound 0.02 µM)	relative viability (MK-8033 + Trametinib; first compound 0.06325 µM)	relative viability (MK-8033 + Trametinib; first compound 0.2 µM)	relative viability (MK-8033 + Trametinib; first compound 0.6325 µM)	relative viability (MK-8033 + Trametinib; first compound 2 µM)	relative viability (MK-8033 + AZD7762; first compound 0.02 µM)	relative viability (MK-8033 + AZD7762; first compound 0.06325 µM)	relative viability (MK-8033 + AZD7762; first compound 0.2 µM)	relative viability (MK-8033 + AZD7762; first compound 0.6325 µM)	relative viability (MK-8033 + AZD7762; first compound 2 µM)
NCI-H1975	0.579	0.469	0.51	0.339	0.602	0.293	0.289	0.294	0.273	0.254	0.357	0.301	0.279	0.239	0.405	0.72	0.777	0.691	0.617	0.689
NCI-H1993	0.563	0.566	0.453	0.649	0.424	0.718	0.597	0.769	0.964	0.719	0.55	0.506	0.427	0.469	0.456	0.657	0.679	0.584	0.529	0.407
NCI-H2085	0.468	0.479	0.499	0.484	0.474	0.476	0.353	0.473	0.409	0.469	0.542	0.546	0.525	0.554	0.574	0.975	0.878	0.923	0.988	0.836
NCI-H2087	0.193	0.21	0.248	0.26	0.235	0.797	0.992	1.16	0.992	0.944	0.213	0.147	0.187	0.214	0.254	1.43	1.32	1.22	1.3	1.22
NCI-H2126	0.336	0.37	0.346	0.353	0.311	0.491	0.407	0.549	0.492	0.507	0.542	0.554	0.525	0.585	0.569	1.06	0.993	1.02	0.942	1.02
NCI-H2170	0.392	0.345	0.372	0.388	0.391	0.293	0.256	0.334	0.282	0.278	0.838	0.92	0.844	0.922	0.824	0.733	0.768	0.829	0.828	0.848
NCI-H2347	0.368	0.408	0.428	0.441	0.464	0.589	1.18	0.595	0.72	0.574	0.326	0.344	0.295	0.287	0.281	0.717	0.784	0.68	0.722	0.831
NCI-H2405	0.515	0.505	0.512	0.514	0.555	0.393	0.34	0.436	0.472	0.333	0.601	0.619	0.496	0.603	0.667	0.807	0.734	0.638	0.701	0.742
NCI-H3122	0.155	0.173	0.19	0.191	0.223	0.644	0.543	0.641	0.559	0.578	0.262	0.247	0.21	0.238	0.3	0.931	0.886	0.965	1.06	0.977
PC-3 [JPC-3]	0.506		0.505	0.516	0.554	0.768	0.69	0.805	0.816	0.683	0.599		0.68	0.708	0.666	0.705		0.656	0.843	0.782
PC-14	0.517	0.422	0.542	0.553	0.464	0.644	0.716	0.756	0.646	0.462	0.723	0.604	0.649	0.774	0.654	0.357	0.296	0.351	0.302	0.354
RERF-LC-KJ	1.11	1.07	1.01	1.08	1.08	0.535	0.529	0.61	0.548	0.476	0.818	0.843	0.812	0.828	0.812	0.984	0.84	1.01	0.981	0.942
